Data set [1] has as its target T1, progesterone receptor (PR) (Homo sapiens, UniProt P06401).
T1 construct: in live, intact (whole) cells, using the human breast carcinoma T47D cell line; endogenous in cells; host or cells: T47D human breast carcinoma cells
T1 sequence (P06401 1-933): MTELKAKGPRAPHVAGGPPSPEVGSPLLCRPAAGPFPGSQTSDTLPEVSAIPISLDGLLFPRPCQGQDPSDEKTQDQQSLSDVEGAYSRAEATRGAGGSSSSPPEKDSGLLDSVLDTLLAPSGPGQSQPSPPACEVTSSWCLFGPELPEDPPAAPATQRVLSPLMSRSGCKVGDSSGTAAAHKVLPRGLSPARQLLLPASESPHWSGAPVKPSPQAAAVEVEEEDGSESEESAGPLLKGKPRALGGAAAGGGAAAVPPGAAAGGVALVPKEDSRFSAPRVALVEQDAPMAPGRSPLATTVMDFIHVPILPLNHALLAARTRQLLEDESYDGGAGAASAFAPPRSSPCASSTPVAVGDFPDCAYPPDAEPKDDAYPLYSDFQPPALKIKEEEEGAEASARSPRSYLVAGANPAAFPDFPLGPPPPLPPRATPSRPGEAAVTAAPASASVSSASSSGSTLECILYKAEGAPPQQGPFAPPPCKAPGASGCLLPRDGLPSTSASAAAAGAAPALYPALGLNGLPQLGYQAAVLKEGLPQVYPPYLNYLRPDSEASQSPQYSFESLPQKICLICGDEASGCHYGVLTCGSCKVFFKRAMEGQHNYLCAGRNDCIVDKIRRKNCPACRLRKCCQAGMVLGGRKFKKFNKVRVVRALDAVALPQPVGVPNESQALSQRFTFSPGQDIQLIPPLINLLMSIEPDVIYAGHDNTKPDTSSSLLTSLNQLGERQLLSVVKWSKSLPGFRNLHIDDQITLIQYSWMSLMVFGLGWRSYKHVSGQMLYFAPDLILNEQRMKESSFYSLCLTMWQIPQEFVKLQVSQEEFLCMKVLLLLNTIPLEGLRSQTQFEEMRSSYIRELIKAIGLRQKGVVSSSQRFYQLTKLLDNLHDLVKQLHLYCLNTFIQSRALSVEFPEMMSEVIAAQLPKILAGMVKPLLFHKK
The data set is described as follows: Progesterone receptor whole cell competition binding assay using T47D cells. As to conditions: intact T47D cells, 3 nM 3H-progesterone, 3 hours at 37° C. On the procedure:
The purpose of this example is to evaluate the progesterone receptor (PR) binding activity of progestins or antiprogestins in live, intact (whole) cells, using the human breast carcinoma T47D cell line and ^3H-progesterone as the labeled ligand.
A. Reagents: • Culture medium: • (i) 5% RC which is phenol red free Dulbecco's Modified Eagles Medium (DMEM):F12 (1:1) (GIBCO, BRL) supplemented with 5% (v/v) charcoal stripped fetal bovine serum (not heat-inactivated), 100 U/mL penicillin, 100 μg/mL streptomycin, and 2 mM of the GlutaMax™ reagent (GIBCO, BRL) • (ii) 10% RC is 5% RC supplemented with 10% (v/v) FBS • ^3H-Progesterone: Perkin Elmer Life Science, cat# NET-381 (typically around 102 Ci/mmol) • Liquid Scintillation Cocktail: Beckman Coulter, the Ready-Safe™ reagent; cat# 141349 • Tissue Culture Plates: 96 well, clear bottom, white, plates (VWR Part # 29443-150 or Perkin Elmer Part # 3983498)
B. T47D Cell Culture: • T47D cells are maintained in 10% RC media at 37° C. in a 5% CO2/humidified atmosphere and need to be split twice weekly for proper response. Cells are plated in 10% RC the day before binding assay at 50,000 cells per well in the white, clear bottom plates purchased through VWR or Perkin Elmer.
Cells plated the day prior to the assay in white clear bottom plates are used. A master compound plate is set up containing control and test compounds at 20X final desired concentration for the competition binding. A typical dose range of 20X concentrations are (in nM); 200,000; 20,000; 6000; 2000; 600; 200; 20; and 2. Final concentrations are then (in nM); 10,000; 1000; 300; 100; 30; 10; 1; 0.1. Control compounds are typically run 10-fold lower than this and include a 0, or vehicle, control well. A stock of 60 nM ^3H-progesterone (20X) is also prepared at a volume needed of 10 μL per well.
Media on cells are replaced with 180 μL of 5% RC. Ten microliters (10 μL) of 60 nM ^3H-progesterone (for final concentration of 3 nM) is added immediately followed by 10 μL of 20X test or control compounds. Compounds are incubated for 3 hours at 37° C. A time course study found no difference between 2 and 4 hours incubation.
Following incubation, media is carefully removed and cells are washed 3X with 200 μL 5% RC each wash. Fifty microliters of liquid scintillation cocktail is added and the plates are shaken vigorously for a minimum of 15 minutes. Plates are read on the Wallac Microbeta® 1450 plate reader.
D. Analysis of Results: • Square root-transformed data are used for analysis of variance and calculation of IC50. SAS software (SAS Institute, Inc.) is used for all the statistical analysis.
E. Reference Compounds: • Progesterone is used as a reference progestin and RU486 as a reference antiprogestin.

Data set [2] deals with alkaline phosphatase activity in T47D cells. The data set can be described thus: Effects of progestins and antiprogestins on alkaline phosphatase activity in T47D cells. As to conditions: Homo sapiens; for IC50: antagonist mode in the presence of 1 nM progesterone, 24 hours. The data set is classed as cell-based. The protocol: The purpose of this example is to identify progestins or antiprogestins by determining a compound's effect on alkaline phosphatase activity in T47D cells.
A. Reagents: • Culture medium: Dulbecco's Modified Eagle Medium (DMEM):F12 (1:1) (GIBCO, BRL) supplemented with 5% (v/v) charcoal stripped fetal bovine serum (not heat-inactivated), 100 U/mL penicillin, 100 μg/mL streptomycin, and 2 mM of the GlutaMax® reagent (GIBCO, BRL). • Alkaline phosphatase assay buffer: • I. 0.1M Tris-HCl, pH 9.8, containing 0.2% Triton® X-100 reagent • II. 0.1M Tris-HCl, pH 9.8, containing 4 mM p-nitrophenyl phosphate (Sigma).
Frozen T47D cells are thawed in a 37° C. water bath and diluted to 280,000 cells/mL in culture medium. To each well in a 96-well plate (Falcon, Becton Dickinson Labware), was added 180 μL of diluted cell suspension. Twenty μL of reference or test compounds diluted in the culture medium is then added to each well. When testing for progestin antagonist activity, reference antiprogestins or test compounds are added in the presence of 1 nM progesterone. The cells are incubated at 37° C. in a 5% CO2/humidified atmosphere for 24 hours. For high throughput screening, one concentration of each compound will be tested at 0.3 μg/mL. Based on an average molecular weight of 300 g/mol for the compounds in the library, the concentration is approximately 1 μM. Compounds active in this assay can be tested in dose response assays to determine EC50 and IC50.
C. Alkaline Phosphatase Enzyme Assay: • At the end of treatment, the medium is removed from the plate. Fifty μL of assay buffer I is added to each well. The plates are shaken in a titer plate shaker for 15 minutes. Then 150 μL of assay buffer II is added to each well. Optical density measurements are taken at 5 minute intervals for 30 minutes at a test wavelength of 405 nm.
D. Analysis of Results: Analysis of Dose-Response Data • For reference and test compounds, a dose response curve is generated for dose (X-axis) vs. the rate of enzyme reaction (slope) (Y-axis). Square root-transformed data are used for analysis of variance and nonlinear dose response curve fitting for both agonist and antagonist modes. Huber weighting is used to down-weight the effects of outliers. EC50 or IC50 values are calculated from the retransformed values. JMP® software (SAS Institute, Inc.) is used for both one-way analysis of variance and non-linear dose response analysis in both single dose and dose response studies.
E. Reference Compounds • Progesterone and trimegestone are reference progestins and RU486 is the reference antiprogestin. All reference compounds are run in full dose response curves and the EC50 and IC50 values are calculated.

This passage reports IC50, melting point and inhibition results from patent US20090197878A1, “SUBSTITUTED BENZO[d][1,3]OXAZIN-2(4H)-ONES AND RELATED DERIVATIVES AND THEIR USES FOR MODULATING THE PROGESTERONE RECEPTOR” (Wyeth, priority 2008, published 2009).

Consider `CC1(C)OC(=O)Nc2ccc(/C(=C/C#N)c3ccccc3)cc21` [Example 6, (2E)-3-(4,4-Dimethyl-2-oxo-1,4-dihydro-2H-3,1-benzoxazin-6-yl)-3-phenylacrylonitrile], for which the melting point (commonly the temperature, or range, at which the solid turns liquid) is 205 to 206 °C. For the same compound, in data set [1], the IC50 (usually the midpoint of a concentration-inhibition curve) came out at 82.5 nM. In addition, in data set [2], the IC50 stood at 80.3 nM.

`COC(=O)/C=C(\C)c1ccc2c(c1)C(C)(C)OC(=O)N2` [Example 9, Methyl(2E)-3-(4,4-dimethyl-2-oxo-1,4-dihydro-2H-3,1-benzoxazin-6-yl)but-2-enoate] registered a melting point of 131 to 132 °C. The 50% inhibitory concentration (IC50) in data set [1] was 84.8 nM. Further, the IC50 in data set [2] was 61.8 nM.

As for `C/C(=C/C#N)c1ccc2c(c1)C(C)(C)OC(=O)N2` [Example 12, (2Z)-3-(4,4-Dimethyl-2-oxo-1,4-dihydro-2H-3,1-benzoxazin-6-yl)but-2-enenitrile], the melting point is 213 to 215 °C. The IC50 in data set [1] was determined as 1390 nM. Also, the inhibition (commonly the drop in the measured response relative to a control, in per cent) at 3 µM in data set [2] (at 3000 nM, in the presence of 1 nM progesterone) was determined as 25%.

For `C/C(=C\C#N)c1ccc2c(c1)C(C)(C)OC(=O)N2` [Example 13, (2E)-3-(4,4-Dimethyl-2-oxo-1,4-dihydro-2H-3,1-benzoxazin-6-yl)but-2-enenitrile], the melting point fell in the range of 230 to 232 °C. Further, the IC50 in data set [1] was 48.1 nM. For the same compound, the IC50 in data set [2] came to 38.2 nM.

On to `CCC/C(=C\C#N)c1ccc2c(c1)C1(CCCCC1)OC(=O)N2` [Example 20, (2E)-3-(2-Oxo-1,2-dihydrospiro[3,1-benzoxazine-4,1′-cyclohexan]-6-yl)hex-2-enenitrile], for which the IC50 was determined as 46.5 nM in data set [1] and 55.7 nM in data set [2].

`CCC1(CC)OC(=O)Nc2ccc(/C(C)=C/C#N)cc21` [Example 22, (2E)-3-(4,4-Diethyl-2-oxo-1,4-dihydro-2H-3,1-benzoxazin-6-yl)but-2-enenitrile]: the melting point was in the range of 159 to 160 °C. In addition, the half-maximal inhibitory concentration (IC50) in data set [1] amounted to 150 nM. For the same compound, the IC50 in data set [2] was 49.6 nM.

`CC/C(=C\C#N)c1ccc2c(c1)C(CC)(CC)OC(=O)N2` [Example 23, (2E)-3-(4,4-Diethyl-2-oxo-1,4-dihydro-2H-3,1-benzoxazin-6-yl)pent-2-enenitrile] yielded a melting point of 135 to 136 °C. In data set [1], the IC50 stood at 52.8 nM. The concentration for half-maximal inhibition (IC50) in data set [2] was found to be 29.2 nM.

With `CCC/C(=C\C#N)c1ccc2c(c1)C(CC)(CC)OC(=O)N2` [Example 25, (2E)-3-(4,4-Diethyl-2-oxo-1,4-dihydro-2H-3,1-benzoxazin-6-yl)hex-2-enenitrile], the melting point was in the range of 121 to 124 °C. In data set [1], the IC50 was found to be 49.2 nM. The half-maximal inhibitory concentration (IC50) in data set [2] came out at 16.1 nM.

`CCC1(CC)OC(=O)Nc2ccc(/C(=C/C#N)C(C)C)cc21` [Example 27, (2E)-3-(4,4-Diethyl-2-oxo-1,4-dihydro-2H-3,1-benzoxazin-6-yl)-4-methylpent-2-enenitrile] came in with a melting point of 138 to 140 °C. This compound registered an IC50 in data set [1] of 1420 nM. Moreover, the IC50 in data set [2] worked out at 208 nM.

With `CC/C(=C\C#N)c1ccc2c(c1)C(C)(C)OC(=O)N2` [Example 28, (2E)-3-(4,4-Dimethyl-2-oxo-1,4-dihydro-2H-3,1-benzoxazin-6-yl)pent-2-enenitrile], the IC50 in data set [1] came to 89.8 nM. In addition, the inhibition at 0.03 µM in data set [2] (at 30 nM, in the presence of 1 nM progesterone) was 70%.

`CCC/C(=C\C#N)c1ccc2c(c1)C(C)(C)OC(=O)N2` [Example 29, (2E)-3-(4,4-Dimethyl-2-oxo-1,4-dihydro-2H-3,1-benzoxazin-6-yl)hex-2-enenitrile] gave an IC50 in data set [1] of 104 nM. Besides, the inhibition at 0.3 µM in data set [2] (at 300 nM, in the presence of 1 nM progesterone) came out at 84%.

In the case of `CC(C)/C(=C\C#N)c1ccc2c(c1)C(C)(C)OC(=O)N2` [Example 30, (2E)-3-(4,4-Dimethyl-2-oxo-1,4-dihydro-2H-3,1-benzoxazin-6-yl)-4-methylpent-2-enenitrile], the figures for the 50% inhibitory concentration (IC50) in data set [1] and in data set [2] were 777 nM and 84.6 nM, respectively.
